From US20060264460A1 (Wyeth, priority 2005, published 2006)

Biological target: T1, human Cot/Tpl2 kinase (Homo sapiens, UniProt P41279)
T1 construct: human Cot/Tpl2 kinase construct encoding residues 30-398; 6His (N); made in house; host or cells: Sf9 insect cells, baculovirus system (BD Biosciences)
Test: Tpl2/Cot kinase assay: GST-MEK1 phosphorylation detected by ELISA (DELFIA Eu)
Format: biochemical
Conditions: Tpl2/Cot kinase, GST-MEK1 substrate, 50 uM ATP
Procedure, shortened: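 His-tagged human Tpl2 from Sf9 cells, Ni-affinity and size-exclusion purified (monomer). 0.4 nM Tpl2 with 35 nM GST-MEK1, 50 uM ATP, MOPS pH 7.2, 1% DMSO, 1 h at 30° C; EDTA stop. MEK1 Ser217/221 phosphorylation detected by anti-phospho-MEK1 and Eu-labelled secondary ELISA; IC50 fitted.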

T1 sequence (P41279 30-398): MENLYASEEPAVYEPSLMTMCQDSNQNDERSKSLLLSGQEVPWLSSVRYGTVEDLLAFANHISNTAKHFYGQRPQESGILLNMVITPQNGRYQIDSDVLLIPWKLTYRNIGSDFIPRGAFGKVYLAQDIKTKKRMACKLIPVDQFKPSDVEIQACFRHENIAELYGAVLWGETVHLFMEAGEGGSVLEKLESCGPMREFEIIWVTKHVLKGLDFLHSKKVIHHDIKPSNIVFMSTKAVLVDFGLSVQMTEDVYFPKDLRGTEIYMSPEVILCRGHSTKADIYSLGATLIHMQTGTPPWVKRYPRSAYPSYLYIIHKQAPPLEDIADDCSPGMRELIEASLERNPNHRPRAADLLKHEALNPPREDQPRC

SMILES | IC50 [µM]
N#Cc1cnc2c(Cl)cc(NCC(=O)NCc3cccnc3)cc2c1Nc1ccc(F)c(Cl)c1 [Example 771] | 0.2
N#Cc1cnc2c(Cl)cc(NCC(=O)Nc3cccnc3)cc2c1Nc1ccc(F)c(Cl)c1 [Example 773] | 0.11
N#Cc1cnc2c(Cl)cc(NCC(=O)Nc3ccncc3)cc2c1Nc1ccc(F)c(Cl)c1 [Example 774] | 2.4
CN(C)CCCNC(=O)CNc1cc(Cl)c2ncc(C#N)c(Nc3ccc(F)c(Cl)c3)c2c1 [Example 775] | > 3
N#Cc1cnc2c(Cl)cc(NCC(=O)NCCCN3CCOCC3)cc2c1Nc1ccc(F)c(Cl)c1 [Example 776] | > 3
N#Cc1cnc2c(Cl)cc(NCC(=O)NCCN3CCOCC3)cc2c1Nc1ccc(F)c(Cl)c1 [Example 777] | 0.53
CN(C)CCNC(=O)CNc1cc(Cl)c2ncc(C#N)c(Nc3ccc(F)c(Cl)c3)c2c1 [Example 778] | 1.6
COCCCNC(=O)CNc1cc(Cl)c2ncc(C#N)c(Nc3ccc(F)c(Cl)c3)c2c1 [Example 779] | 0.23
N#Cc1cnc2c(Cl)cc(NCC(=O)NCc3ccccn3)cc2c1Nc1ccc(F)c(Cl)c1 [Example 780] | 0.33
CN1CCCC1CCNC(=O)CNc1cc(Cl)c2ncc(C#N)c(Nc3ccc(F)c(Cl)c3)c2c1 (stereo not shown) [Example 781] | > 3
N#Cc1cnc2c(Cl)cc(NC3CCCC3Cl)cc2c1Nc1ccc(F)c(Cl)c1 (stereo not shown) [Example 782] | > 3
CCN1CC(CCn2cc(CNc3cc(Cl)c4ncc(C#N)c(Nc5ccc(F)c(Cl)c5)c4c3)nn2)N(c2ccccc2)C1=S (stereo not shown) [Example 792] | 0.13
CN1CCCN(CCCn2cc(CNc3cc(Br)c4ncc(C#N)c(Nc5ccc(F)c(Cl)c5)c4c3)nn2)CC1 [Example 793] | 0.07
N#Cc1cnc2c(Cl)cc(NCC(O)CO)cc2c1Nc1ccc(F)c(Cl)c1 (stereo not shown) [Example 797] | 0.59
N#Cc1cnc2c(Br)cc(NCC(=O)O)cc2c1Nc1ccc(F)c(Cl)c1 [Example 798] | 0.14
N#Cc1cnc2c(Br)cc(NCc3cn(C4CCCC4)cn3)cc2c1Nc1ccc(F)c(Cl)c1 [Example 799] | 0.23
CC1CC(C)CN(CCCn2cc(CNc3cc(Cl)c4ncc(C#N)c(Nc5ccc(F)c(Cl)c5)c4c3)nn2)C1 (stereo not shown) [Example 800] | 0.15
N#Cc1cnc2c(Cl)cc(NC3CCCC3n3cc(CCO)nn3)cc2c1Nc1ccc(F)c(Cl)c1 (stereo not shown) [Example 803] | 0.067
CC(C)n1cnc(CNc2cc(Br)c3ncc(C#N)c(Nc4ccc(F)c(Cl)c4)c3c2)c1 [Example 804] | 0.068
N#Cc1cnc2c(Br)cc(NCc3cn(COCc4ccccc4)nn3)cc2c1Nc1ccc(F)c(Cl)c1 [Example 805] | > 3
CC(CNc1cc(Cl)c2ncc(C#N)c(Nc3ccc(F)c(Cl)c3)c2c1)c1ccncc1 (stereo not shown) [Example 806] | 0.2
N#Cc1cnc2c(Cl)cc(NCc3cn(COCc4ccccc4)nn3)cc2c1Nc1ccc(F)c(Cl)c1 [Example 807] | > 3
CCN1CCC[C@H]1CNc1cc(Cl)c2ncc(C#N)c(Nc3ccc(F)c(Cl)c3)c2c1 [Example 809] | 0.33
CCN(C[C@@H]1CCCN1CC)c1cc(Cl)c2ncc(C#N)c(Nc3ccc(F)c(Cl)c3)c2c1 [Example 811] | 1.2
CC1(C)OC[C@H](CNc2cc(Cl)c3ncc(C#N)c(Nc4ccc(F)c(Cl)c4)c3c2)O1 [Example 812] | 0.2
CN1CCCC1CCn1cc(CN(Cc2cn(CCC3CCCN3C)nn2)c2cc(Br)c3ncc(C#N)c(Nc4ccc(F)c(Cl)c4)c3c2)nn1 (stereo not shown) [Example 823] | 0.86
N#Cc1cnc2c(Cl)cc(NCC3CCNCC3)cc2c1Nc1ccc(F)c(Cl)c1 [Example 824] | 1.24
N#Cc1cnc2c(Br)cc(NCc3cn(C4CN5CCC4CC5)nn3)cc2c1Nc1ccc(F)c(Cl)c1 (stereo not shown) [Example 838] | 0.01

More lines, in order of falling IC50, values ahead:

IC50 [µM] | SMILES
0.06 | CC(=O)N(CCNc1cc(Cl)c2ncc(C#N)c(Nc3ccc(F)c(Cl)c3)c2c1)Cc1ccncc1 [Example 844]
0.058 | CC(=O)N(CCNc1cc(Cl)c2ncc(C#N)c(Nc3ccc(F)c(Cl)c3)c2c1)Cc1cccnc1 [Example 843]
0.054 | CC(=O)N1CCC[C@H]1CNc1cc(Cl)c2ncc(C#N)c(Nc3ccc(F)c(Cl)c3)c2c1 [Example 810]
0.048 | N#Cc1cnc2c(Cl)cc(NCC(=O)NCc3ccncc3)cc2c1Nc1ccc(F)c(Cl)c1 [Example 772]
0.048 | CN1CCCN(CCCn2cc(CNc3cc(Cl)c4ncc(C#N)c(Nc5ccc(F)c(Cl)c5)c4c3)nn2)CC1 [Example 794]
0.041 | N#Cc1cnc2c(Cl)cc(NCc3cn(Cc4ccccn4)cn3)cc2c1Nc1ccc(F)c(Cl)c1 [Example 786]
0.039 | CN1CCN(CCCn2cc(CNc3cc(Cl)c4ncc(C#N)c(Nc5ccc(F)c(Cl)c5)c4c3)nn2)CC1 [Example 796]
0.037 | CN1CCC(Cn2cc(CNc3cc(Cl)c4ncc(C#N)c(Nc5ccc(F)c(Cl)c5)c4c3)nn2)CC1 [Example 825]
0.035 | CC(=O)Nc1ccc(-n2cc(CNc3cc(Cl)c4ncc(C#N)c(Nc5ccc(F)c(Cl)c5)c4c3)nn2)cc1 [Example 802]
0.035 | CCN1CCC(Cn2cc(CNc3cc(Cl)c4ncc(C#N)c(Nc5ccc(F)c(Cl)c5)c4c3)nn2)CC1 [Example 826]
0.034 | N#Cc1cnc2c(Br)cc(NCc3cn(Cc4ccccn4)cn3)cc2c1Nc1ccc(F)c(Cl)c1 [Example 785]
0.029 | CN1CCN(CCCn2cc(CNc3cc(Br)c4ncc(C#N)c(Nc5ccc(F)c(Cl)c5)c4c3)nn2)CC1 [Example 795]
0.029 | N#Cc1cnc2c(Cl)cc(NCc3cn(CCCN4CCC(F)(F)CC4)nn3)cc2c1Nc1ccc(F)c(Cl)c1 [Example 841]
0.025 | CCN1CC(CCn2cc(CNc3cc(Cl)c4ncc(C#N)c(Nc5ccc(F)c(Cl)c5)c4c3)nn2)N(c2ccccc2)C1=O (stereo not shown) [Example 791]
0.022 | N#Cc1cnc2c(Cl)cc(NCc3ccncc3)cc2c1Nc1ccc(F)c(Cl)c1 [Example 845]
0.019 | CN(C)C(=O)N1CCC(CCn2cc(CNc3cc(Cl)c4ncc(C#N)c(Nc5ccc(F)c(Cl)c5)c4c3)nn2)CC1 [Example 830]
0.015 | COCCNC(=O)Cn1cc(CNc2cc(Cl)c3ncc(C#N)c(Nc4ccc(F)c(Cl)c4)c3c2)nn1 [Example 816]
0.014 | N#Cc1cnc2c(Cl)cc(NCc3cn(CC(=O)NCCN4CCOCC4)nn3)cc2c1Nc1ccc(F)c(Cl)c1 [Example 820]
0.014 | CN(C)C(=O)Cn1cc(CNc2cc(Br)c3ncc(C#N)c(Nc4ccc(F)c(Cl)c4)c3c2)nn1 [Example 834]
0.013 | CN1CCN(C(=O)Cn2cc(CNc3cc(Cl)c4ncc(C#N)c(Nc5ccc(F)c(Cl)c5)c4c3)nn2)CC1 [Example 822]
0.011 | CC(C)N1CCC(Cn2cc(CNc3cc(Cl)c4ncc(C#N)c(Nc5ccc(F)c(Cl)c5)c4c3)nn2)CC1 [Example 827]

IC50 [µM] | SMILES
0.011 | Cc1cc(Cn2cc(CNc3cc(Cl)c4ncc(C#N)c(Nc5ccc(F)c(Cl)c5)c4c3)nn2)ccn1 [Example 837]
0.01 | CN(C)C(=O)CCn1cc(CNc2cc(Cl)c3ncc(C#N)c(Nc4ccc(F)c(Cl)c4)c3c2)nn1 [Example 789]
0.01 | Cc1ncccc1Cn1cc(CNc2cc(Cl)c3ncc(C#N)c(Nc4ccc(F)c(Cl)c4)c3c2)nn1 [Example 840]
0.0093 | CCNC(=O)N1CCC(CCn2cc(CNc3cc(Cl)c4ncc(C#N)c(Nc5ccc(F)c(Cl)c5)c4c3)nn2)CC1 [Example 831]
0.0091 | CCN(Cc1cn(CC(=O)N(C)C)nn1)c1cc(Br)c2ncc(C#N)c(Nc3ccc(F)c(Cl)c3)c2c1 [Example 835]
0.009 | N#Cc1cnc2c(Br)cc(NCc3cn(CCOC(N)=O)nn3)cc2c1Nc1ccc(F)c(Cl)c1 [Example 833]
0.0069 | CN1CCCC1CCNC(=O)Cn1cc(CNc2cc(Cl)c3ncc(C#N)c(Nc4ccc(F)c(Cl)c4)c3c2)nn1 (stereo not shown) [Example 817]
0.0068 | CN(C)CCNC(=O)Cn1cc(CNc2cc(Cl)c3ncc(C#N)c(Nc4ccc(F)c(Cl)c4)c3c2)nn1 [Example 818]
0.0061 | CN1CC(CCn2cc(CNc3cc(Cl)c4ncc(C#N)c(Nc5ccc(F)c(Cl)c5)c4c3)nn2)N(C)C1=O (stereo not shown) [Example 790]
0.0059 | N#Cc1cnc2c(Cl)cc(NCc3cn(CCOC(N)=O)nn3)cc2c1Nc1ccc(F)c(Cl)c1 [Example 784]
0.0053 | N#Cc1cnc2c(Cl)cc(NCc3cn(Cc4ccncc4)cn3)cc2c1Nc1ccc(F)c(Cl)c1 [Example 787]
0.0053 | N#Cc1cnc2c(Cl)cc(NCc3cn(CC(=O)N4CCCCCCC4)nn3)cc2c1Nc1ccc(F)c(Cl)c1 [Example 815]
0.005 | CN(C)C(=O)Cn1cc(CNc2cc(Cl)c3ncc(C#N)c(Nc4ccc(F)c(Cl)c4)c3c2)nn1 [Example 788]
0.0046 | N#Cc1cnc2c(Cl)cc(NCc3cn(CC(=O)N4CCCCCC4)nn3)cc2c1Nc1ccc(F)c(Cl)c1 [Example 814]
0.0035 | CC(C)NC(=O)Cn1cc(CNc2cc(Cl)c3ncc(C#N)c(Nc4ccc(F)c(Cl)c4)c3c2)nn1 [Example 813]
0.0027 | N#Cc1cnc2c(Cl)cc(NCc3cn(CC(=O)Nc4cccnc4)nn3)cc2c1Nc1ccc(F)c(Cl)c1 [Example 821]
0.0026 | CN(C)C(=O)N1CCC(Cn2cc(CNc3cc(Cl)c4ncc(C#N)c(Nc5ccc(F)c(Cl)c5)c4c3)nn2)CC1 [Example 828]
0.0018 | CN(CCCn1cc(CNc2cc(Cl)c3ncc(C#N)c(Nc4ccc(F)c(Cl)c4)c3c2)nn1)C1CCCCC1 [Example 801]
0.0012 | CC(=O)N1CCC(CCn2cc(CNc3cc(Cl)c4ncc(C#N)c(Nc5ccc(F)c(Cl)c5)c4c3)nn2)CC1 [Example 832]
0.0009 | Cc1c(Cn2cc(CNc3cc(Cl)c4ncc(C#N)c(Nc5ccc(F)c(Cl)c5)c4c3)nn2)ccc[n+]1[O-] [Example 842]
0.0008 | N#Cc1cnc2c(Cl)cc(NCc3cn(CC(=O)NCc4cccnc4)nn3)cc2c1Nc1ccc(F)c(Cl)c1 [Example 819]
